Common to all, as to assay: growth of human tumour cells (NCI), 48 h
Assay [1] has as its system PC-3.
The subject of assay [2] is COLO 205.
Assay [3] has as its system SN12C.
In assay [4] the test system is SK-MEL-2.
Assay [5] relates to NCI-H23.
In assay [6] the test system is HOP-62.
The test system of assay [7] is CAKI-1.
Assay [8] deals with MDA-N.
Assay [9] relates to SNB-19.
Assay [10] relates to NCI-H522.
Assay [11] deals with MOLT-4.
For assay [12], the system named is NCI/ADR-RES.
Assay [13] has as its system M14.
For assay [14], the system named is SK-MEL-28.
Assay [15] has as its system 786-0.
The test system of assay [16] is HL-60.
Assay [17] relates to K562.
The test system of assay [18] is U-251.
The test system of assay [19] is Malme-3M.
Assay [20] relates to MDA-MB-435.

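96-well plates; 48 h exposure; 5 concentrations. Endpoints by linear interpolation between flanking doses. Not reached: highest tested concentration assigned. The concentration for 50% growth inhibition is given as GI50.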 Calls of active or inactive are those of the source. No stated cut-off is given here; in the data, active = GI50 up to about 1.1 µM and inactive = higher.

For the compound `CC(O)c1cc2c(s1)C(=O)c1sccc1C2=O` (stereo not given), the GI50 is 0.289 µM (active) in assay [1]; 0.574 µM (active) in assay [2]; 0.112 µM (active) in [3]; 0.0415 µM (active) in assay [4]; 0.0155 µM (active) in assay [5]; 0.163 µM (active) in [6]. The GI50 was 0.552 µM (active) in assay [7]; 0.0198 µM (active) in assay [8]; 0.136 µM (active) in assay [9]; 0.148 µM (active) in assay [10]; 0.268 µM (active) in assay [11]; 0.178 µM (active) in assay [12]. Moreover, the GI50 is 0.0185 µM (active) in assay [13]; 0.047 µM (active) in assay [14]; 0.303 µM (active) in [15]; 0.0859 µM (active) in assay [16]; 0.353 µM (active) in [17]; 0.125 µM (active) in assay [18]. Also, the GI50 in assay [19] is 0.0215 µM (active); in assay [20] it was 0.0203 µM (active).

Regarding `COc1ccc(OC)c(/N=C/c2cc(OC)c(OC)c(OC)c2)c1`, the GI50 in assay [1], in [2], in [3], in assay [4], in assay [5] and in assay [6] was > 100 µM (inactive) each time. For the same compound, the GI50 in assay [7] is 80.5 µM (inactive); in [8], 40.1 µM (inactive); in [9], > 100 µM (inactive); in assay [10] it was 22.9 µM (inactive); in assay [11], 68.9 µM (inactive); in assay [12], > 100 µM (inactive). Besides, the GI50 in assay [13] is > 100 µM (inactive); in [14] it was > 89.1 µM (inactive); in [15], > 95.7 µM (inactive); in [16], 48.9 µM (inactive); in assay [17], > 68.1 µM (inactive); in assay [18], > 100 µM (inactive). Also, the GI50 in assay [19] was > 100 µM (inactive); in [20] it was 28 µM (inactive).

For the compound `CSc1c(CC(=O)O)n(Cc2ccccc2)c2ccccc12`, the GI50 in assay [1], in assay [2], in assay [3], in [4], in [5] and in [6] was > 100 µM (inactive) each time. Further, the GI50 in [7] was > 100 µM (inactive); in [8] it was > 100 µM (inactive); in [9], > 100 µM (inactive); in [10], 89.3 µM (inactive); in [11], > 100 µM (inactive); in [12], > 100 µM (inactive). For the same compound, the GI50 is > 100 µM (inactive) in [13]; > 100 µM (inactive) in [14]; > 100 µM (inactive) in assay [15]; > 100 µM (inactive) in assay [16]; 72.3 µM (inactive) in assay [17]; > 100 µM (inactive) in assay [18]. Moreover, the GI50 in assay [19] and in assay [20] was > 100 µM (inactive) each time.

Take `C/C(=N\Nc1nc2ccccc2[nH]1)c1ncccn1`: the GI50 in [1] is 1.92 µM (inactive); in assay [2], < 0.0197 µM (active); in [3], 0.0715 µM (active); in [4], 2.01 µM (inactive); in assay [5], 0.0621 µM (active); in assay [6], 1.64 µM (inactive). Moreover, the GI50 in [7] is < 0.0224 µM (active); in assay [8], 0.388 µM (active); in assay [9], 0.0879 µM (active); in [10] it was < 0.0164 µM (active); in [11] it was < 0.01 µM (active); in assay [12], 0.0608 µM (active). Further, the GI50 in [13] was 0.0417 µM (active); in [14] it was 0.0948 µM (active); in [15], 0.0238 µM (active); in assay [16], < 0.01 µM (active); in assay [17], 0.044 µM (active); in [18], 0.0462 µM (active). Further, the GI50 in [19] is < 0.0243 µM (active); in assay [20], 0.0968 µM (active).

The record behind these values is ChEMBL document CHEMBL1201862, “PubChem BioAssay data set” (2004).
